Measurements reported in patent US10034879B2, “Substituted benzaldehyde compounds and methods for their use in increasing tissue oxygenation” (Global Blood Therapeutics, Inc., priority 2011, dated 2018).
“And” between values parts separate entries of the source, which are not always exact repeats. Equal entries are not always repeated. Where two headings read alike, the source gives them in different places.

Experiments:
HbS/A = target: T1, HbS/A (Homo sapiens, UniProt P68871+P69905, E7V); assay: Relaxed-to-tense transition assay (R/T assay); type: biochemical; settings: compound at 30 μm; 3 μM HbS/A
T1 construct: A mixture of HbS/A was purified from blood; from tissue; host or cells: blood of homozygous sickle cell patients
Method: A relaxed-to-tense transition assay (“R/T assay”) was used to determine the ability of substituted benzaldehyde compounds to maintain the high-oxygen affinity relaxed (R) state of hemoglobin under deoxygenated conditions. This ability can be expressed as a “delta R” value (i.e., the change in the time-period of the R state after hemoglobin is treated with a compound, as compared to the period without treatment with the compound). Delta R is the % R to remaining after the compounds treatment compared with no treatment (e.g. if R % without treatment is 8% while with treatment with a target compound is 48% R at 30 μM, then % R is 40% for that compound.
A mixture of HbS/A was purified from blood obtained from homozygous sickle cell patients though the Hemoglobinopathy Center at Children's Hospital Oakland Research Institute (CHORI) with Institutional Review Board approval. HbS/A (at a final concentration of 3 μM) was incubated for 1 hr at 37° C. in presence or absence of compounds in […] potassium phosphate buffer, pH=7.4 and 30 μM 2, 3 diphosphoglycerate (DPG) in 96 well plates in a final volume of 160 μl. Compounds were added at different concentrations (3 μM to 100 μM final concentrations). Plates were covered with a Mylar film. After incubation was completed the Mylar cover was removed and the plates were placed in a Spectrostar Nano plate reader previously heated at 37° C. Five minutes later, N2 (flow rate=20 L/min) was flowed through the spectrophotometer. Spectroscopic measurements (300 nm to 700 nm) were taken every 5 min for 2 hours. Data analysis was performed by using linear regression from the data retrieved for all wavelengths.
Table 4 below lists the delta R values where + indicates a delta R of between 0 and 30, ++ indicates a delta R of between 30 and 50, and +++ indicates a delta R of 50 or greater. Unless noted otherwise, the compounds in Table 2 were tested at 9 μM.

purified HBS = target: T2, purified HBS (Homo sapiens, UniProt P68871+P69905, E7V); assay: HbS polymerization assay (delay time); type: biochemical; settings: 50 μM purified HBS, 1.8 M potassium phosphate pH 7.4
T2 construct: HbS is purified by the CRO VIRUSYS, from blood obtained from homozygous sickle cell patients; tissue VIRUSYS (CRO that did the purification); host or cells: blood of homozygous sickle cell patients
Method: Polymerization assays are carried out in vitro using purified HBS exchanged into 1.8 M potassium phosphate buffer at pH 7.4. Using a slightly modified protocol (Antonini and Brunori, 1971), HbS is purified by the CRO VIRUSYS, from blood obtained from homozygous sickle cell patients through the Hemoglobinopathy Center at Children's Hospital Oakland Research Institute (CHORI) with Institutional Review Board approval. Compounds are prepared in 100% DMSO and a desired amount is added to 50 μM of purified HBS at a final DMSO concentration of 0.3%. Final potassium phosphate concentration is adjusted to 1.8 M using a combination of 2.5 M potassium phosphate stock solution and water at pH 7.4. The reaction mixture is incubated for an hour at 37° C. and then transferred into a 24-well plate for deoxygenation in a glove box containing 99.5% nitrogen and 0.5% oxygen. The 24-well plate is not covered and incubated at 4° C. on a plate cooler inside the glove box for one and a half hours. Fifty μL of the reaction mixture is transferred into a 96-well plate and the absorbance at 700 nm is measured every minute for one hour at 37° C. in a plate reader located inside the glove box. A plot of the absorbance against time is fitted using a Boltzman sigmoidal fit and the delay time (from zero to time at half Vmax) is measured. To compare and rank compounds, delay times are expressed as percent delay (% DT), which is defined as the difference in delay times for HBS/compound and HBS alone multiplied by 100 and divided by the delay time for HBS alone.
Compounds listed below have been tested in the polymerization assay. Activity ranges are defined by the number of dagger (†) symbols indicated. † denotes activity ≤40% but ≤80%; †† denotes activity >80% but ≤120%; ††† denotes activity >120% but ≤140%; †††† denotes activity >160%.

[1] = Pharmacokinetic I.V. study in rat; type: in vivo, Sprague Dawley rats; settings: 7.8 mpk IV; for Vd: read-out: Vss; for half-life: read-out: t½ beta
Method: (§1) Sprague Dawley rats were treated with 7.8 mg/Kg of Compound 43 dissolved in 10% DMA:[…]:16% ca vitron. At specified time points 10 uL of whole blood/plasma was removed from rats and treated with 490 ul pH 3 buffer+500 uL ACN/IS, then shaken for 1 hour, centrifuged for 10 minutes at […] at 4 C. The supernatant was transferred to a filter plate and centrifuged at 2000 rpm for 1 minute at 4 C. The samples were then analyzed by LC-MS/MS monitoring parent aldehyde.

[2] = Pharmacokinetic oral study in rat; type: in vivo, SD Rats; settings: for AUClast ratio / Cmax ratio: PO, 100 mg/kg vs 44 mg/kg; for Cmax / Tmax: Sprague-Dawley
Method: as §1
SD Rats were treated by gavage with 44 mg/kg and 100 mg/kg dissolved in 10% DMA:90% PEG. At specified time points blood was taken and worked up as described above in the IV Study.

[3] = HCl salt, 0 min, animals A, B, C
[4] = HCl salt, 5 min, animals A, B, C, 7.8 mg/kg
[5] = HCl salt, 15 min, animals A, B, C, 7.8 mg/kg
[6] = HCl salt, 30 min, animals A, B, C, 7.8 mg/kg
[7] = HCl salt, 60 min, animals A, B, C, 7.8 mg/kg
[8] = HCl salt, 120 min, animals A, B, C, 7.8 mg/kg
[9] = HCl salt, 240 min, animals A, B, C, 7.8 mg/kg
[10] = HCl salt, 1440 min, animals A, B, C, 7.8 mg/kg
[11] = Sprague-Dawley, 7.8 mg/kg, Plasma
[12] = Sprague-Dawley, whole blood, 7.8 mg/kg, Blood
[13] = whole blood, PO 44 mg/kg, Blood
[14] = whole blood, PO 100 mg/kg, Blood

In the case of CC(C)n1nccc1-c1ncccc1COc1cccc(O)c1C=O [Compound 43, 2-hydroxy-6-((2-(1-isopropyl-1H-pyrazol-5-yl)pyridin-3-yl)methoxy)benzaldehyde], the “delta R (%)” value (HbS/A) is reported as “+++ (30 μm) (+++ indicates a delta R of 50 or greater)”, the “% delta Delay” value (purified HBS) is reported as “†† (†† denotes activity >80% but ≤120%)” and the AUClast ([1]; Blood) is reported as 215846.3 µmol·min/L. The blood conc [1, 3] was “BLLOQ”, the plasma conc [1, 3] was “BLLOQ” and the blood conc [1, 4] was 246 µM and 281 µM. The plasma conc [1, 4] was 8.68 µM and 7.44 µM, the blood conc [1, 5] was 341 µM and 285 µM and the plasma conc [1, 5] was 8.42 µM and 7.16 µM. For the same compound, the blood conc [1, 6] was 333 µM and 292 µM, the plasma conc [1, 6] was 7.1 µM and the blood conc [1, 7] was 203 µM and 285 µM. The plasma conc [1, 7] was 7.52 µM and 7.22 µM, the blood conc [1, 8] was 274 µM and 280 µM and the plasma conc [1, 8] was 6.02 µM and 5.22 µM. The blood conc [1, 9] was 225 µM and 259 µM, the plasma conc [1, 9] was 5.24 µM and 5.88 µM and the plasma conc ([1]; HCl salt, 480 min, animals A, B, C, 7.8 mg/kg) was 2.66 µM and 3.15 µM. The blood conc [1, 10] was 85 µM and 70.8 µM, the plasma conc [1, 10] was 1.38 µM and 1.51 µM and the AUClast ([1]; Plasma) was 4114.8 µmol·min/L. The clearance [1, 11] was 4.45 mL/min/kg, the Vd [1, 11] was 4.11 L/kg and the half-life [1, 11] was 10.3 h. The concentration at 5 min ([1]; Sprague-Dawley, plasma, iv, 7.8 mg/kg, HCl salt, 5 min, animals A, B, C, read-out: plasma conc) was 7.56 µM, the concentration at 15 min ([1]; Sprague-Dawley, plasma, iv, 7.8 mg/kg, HCl salt, 15 min, animals A, B, C, read-out: plasma conc) was 8.38 µM and the concentration at 30 min ([1]; Sprague-Dawley, plasma, iv, 7.8 mg/kg, HCl salt, 30 min, animals A, B, C, read-out: plasma conc) was 8.66 µM. For the same compound, the concentration at 60 min ([1]; Sprague-Dawley, plasma, iv, 7.8 mg/kg, HCl salt, 60 min, animals A, B, C, read-out: plasma conc) was 6.12 µM, the concentration at 120 min ([1]; Sprague-Dawley, plasma, iv, 7.8 mg/kg, HCl salt, 120 min, animals A, B, C, read-out: plasma conc) was 3.92 µM and the concentration at 240 min ([1]; Sprague-Dawley, plasma, iv, 7.8 mg/kg, HCl salt, 240 min, animals A, B, C, read-out: plasma conc) was 3.72 µM. It also gave a concentration at 480 min ([1]; Sprague-Dawley, plasma, iv, 7.8 mg/kg, HCl salt, 480 min, animals A, B, C, read-out: plasma conc) of 2.06 µM, a concentration at 1440 min ([1]; Sprague-Dawley, plasma, iv, 7.8 mg/kg, HCl salt, 1440 min, animals A, B, C, read-out: plasma conc) of 1.07 µM and a clearance [1, 12] of 0.08 mL/min/kg. For the same compound, the Vd [1, 12] was 0.09 L/kg, the half-life [1, 12] was 12.5 h and the concentration at 5 min ([1]; Sprague-Dawley, whole blood, iv, 7.8 mg/kg, HCl salt, 5 min, animals A, B, C, read-out: blood conc) was 259 µM. For the same compound, the concentration at 15 min ([1]; Sprague-Dawley, whole blood, iv, 7.8 mg/kg, HCl salt, 15 min, animals A, B, C, read-out: blood conc) was 287 µM, the concentration at 30 min ([1]; Sprague-Dawley, whole blood, iv, 7.8 mg/kg, HCl salt, 30 min, animals A, B, C, read-out: blood conc) was 283 µM and the concentration at 60 min ([1]; Sprague-Dawley, whole blood, iv, 7.8 mg/kg, HCl salt, 60 min, animals A, B, C, read-out: blood conc) was 256 µM. It also gave a concentration at 120 min ([1]; Sprague-Dawley, whole blood, iv, 7.8 mg/kg, HCl salt, 120 min, animals A, B, C, read-out: blood conc) of 263 µM, a concentration at 240 min ([1]; Sprague-Dawley, whole blood, iv, 7.8 mg/kg, HCl salt, 240 min, animals A, B, C, read-out: blood conc) of 248 µM and a concentration at 1440 min ([1]; Sprague-Dawley, whole blood, iv, 7.8 mg/kg, HCl salt, 1440 min, animals A, B, C, read-out: blood conc) of 81.1 µM. It also gave an AUClast ([2]; PO 44 mg/kg, Blood) of 395638.27 µmol·min/L, an AUClast ([2]; PO 44 mg/kg, Plasma) of 12517.54 µmol·min/L and an AUClast ([2]; PO 100 mg/kg, Blood) of 1384101.11 µmol·min/L. For the same compound, the AUClast ([2]; PO 100 mg/kg, Plasma) was 52836.17 µmol·min/L, the AUClast ratio ([2]; Blood) was 3.50 and the Cmax ratio ([2]; Blood) was 2.88. The AUClast ratio ([2]; Plasma) was 4.22, the Cmax ratio ([2]; Plasma) was 3.01 and the Cmax ([2]; PO 44 mg/kg, Plasma) was 14.8 µM. For the same compound, the Tmax ([2]; PO 44 mg/kg, Plasma) was 3.33 h, the Cmax ([2]; PO 100 mg/kg, Plasma) was 44.5 µM and the Tmax ([2]; PO 100 mg/kg, Plasma) was 11.3 h. It also gave a Cmax [2, 13] of 381 µM, a Tmax [2, 13] of 5.33 h and a Cmax [2, 14] of 1100 µM. For the same compound, the Tmax [2, 14] was 12 h.
